From patent US8435980B2 (AbbVie Inc., priority 2009, dated 2013)

Target: T1, Cdc7 (BEV coexpressed huCDC7/DBF4) (Homo sapiens, UniProt O00311)
T1 construct: made in house; host or cells: BEV (baculovirus expression vector) co-expression; insect cells are implied but no cell line is named
Assay: Cdc7 enzyme inhibition assay ([33P]ATP, biotinylated peptide substrate, FlashPlate)
Assay type: biochemical
Details: Table 3; enzyme inhibition data (Ki)
Procedure: Cdc7 (BEV coexpressed huCDC7/DBF4) is prepared internally. Cdc7 assays are conducted as follows with final concentrations as listed. […] Reactions are quenched after 1 hr by the addition of 90 μL stop buffer (50 mM EDTA, 2M NaCl). […] (Ki) for exemplary compounds.

T1 sequence (O00311 whole entry): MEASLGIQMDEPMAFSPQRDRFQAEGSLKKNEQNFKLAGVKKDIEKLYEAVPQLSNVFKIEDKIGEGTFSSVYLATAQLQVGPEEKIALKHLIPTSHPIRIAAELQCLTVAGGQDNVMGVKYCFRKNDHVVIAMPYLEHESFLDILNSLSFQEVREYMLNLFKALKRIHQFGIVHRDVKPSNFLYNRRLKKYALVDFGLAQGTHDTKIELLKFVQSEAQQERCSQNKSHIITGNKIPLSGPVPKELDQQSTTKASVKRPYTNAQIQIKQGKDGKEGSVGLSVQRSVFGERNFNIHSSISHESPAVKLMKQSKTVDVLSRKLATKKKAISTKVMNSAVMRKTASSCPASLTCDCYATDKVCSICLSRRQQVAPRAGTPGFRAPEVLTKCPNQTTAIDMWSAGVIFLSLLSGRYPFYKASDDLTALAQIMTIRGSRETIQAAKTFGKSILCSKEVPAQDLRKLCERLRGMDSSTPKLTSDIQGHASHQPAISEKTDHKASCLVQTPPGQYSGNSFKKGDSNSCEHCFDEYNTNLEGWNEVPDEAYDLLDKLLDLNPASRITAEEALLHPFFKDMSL
T1 sequence (Q9UBU7 whole entry partner): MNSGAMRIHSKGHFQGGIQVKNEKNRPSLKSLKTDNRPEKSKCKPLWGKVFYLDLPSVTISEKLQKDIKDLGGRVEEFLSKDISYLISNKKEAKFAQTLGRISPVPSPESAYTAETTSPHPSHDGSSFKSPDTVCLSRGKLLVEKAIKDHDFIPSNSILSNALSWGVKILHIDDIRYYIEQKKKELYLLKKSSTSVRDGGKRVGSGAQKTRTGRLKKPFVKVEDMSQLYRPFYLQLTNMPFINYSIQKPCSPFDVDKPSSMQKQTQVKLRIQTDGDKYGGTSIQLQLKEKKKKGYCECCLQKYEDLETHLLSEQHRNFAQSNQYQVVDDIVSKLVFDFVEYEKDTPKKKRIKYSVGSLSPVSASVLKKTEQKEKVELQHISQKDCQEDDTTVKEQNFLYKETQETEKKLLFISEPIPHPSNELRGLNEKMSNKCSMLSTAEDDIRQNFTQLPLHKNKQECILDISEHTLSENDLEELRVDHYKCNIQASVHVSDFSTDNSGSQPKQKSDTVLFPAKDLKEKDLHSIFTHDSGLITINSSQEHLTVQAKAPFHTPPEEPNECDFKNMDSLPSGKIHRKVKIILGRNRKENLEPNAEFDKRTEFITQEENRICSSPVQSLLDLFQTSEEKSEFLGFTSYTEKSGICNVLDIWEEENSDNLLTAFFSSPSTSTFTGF

Compound	Ki [nM]
O=S(=O)(N[C@H]1CC[C@H](Nc2nc(Cl)cc(-c3c[nH]c4ncccc34)n2)CC1)c1cccs1 [Example 482, N-(trans-4-{[4-chloro-6-(1H-pyrrolo[2,3-b]pyridin-3-yl)pyrimidin-2-yl]amino}cyclohexyl)thiophene-2-sulfonamide]	< 10
N-(3-{[6-chloro-4-(1H-pyrrolo[2,3-b]pyridin-3-yl)pyridin-2-yl]amino}cyclohexyl)-2-(dimethylamino)ethanesulfonamide [Example 154]	< 10
N-{2-[(3-{[6-chloro-4-(1H-pyrrolo[2,3-b]pyridin-3-yl)pyridin-2-yl]amino}cyclohexyl)sulfamoyl]ethyl}benzamide [Example 169]	< 10
{4-[(4-{[6-chloro-4-(1H-pyrrolo[2,3-b]pyridin-3-yl)pyridin-2-yl]amino}cyclohexyl)amino]piperidin-1-yl}(phenyl)methanone [Example 177]	< 10
